Experimental data reported in patent US7138411B2, “Substituted benzopyran derivatives for the treatment of inflammation” (G.D. Searle & Co., priority 1997, dated 2006).
Structures can show the parent of a compound that is named as a salt.

How the values were obtained:
COX-2 = target: T1, COX-2 (UniProt P35354); test: Fast assay for COX-2 activity (PGE2 ELISA); assay type: biochemical, human or murine; conditions: fast assay: 10 min pre-incubation at 25° C., reaction stopped after two minutes, pH 7.5
T1 sequence (P35354 1-604): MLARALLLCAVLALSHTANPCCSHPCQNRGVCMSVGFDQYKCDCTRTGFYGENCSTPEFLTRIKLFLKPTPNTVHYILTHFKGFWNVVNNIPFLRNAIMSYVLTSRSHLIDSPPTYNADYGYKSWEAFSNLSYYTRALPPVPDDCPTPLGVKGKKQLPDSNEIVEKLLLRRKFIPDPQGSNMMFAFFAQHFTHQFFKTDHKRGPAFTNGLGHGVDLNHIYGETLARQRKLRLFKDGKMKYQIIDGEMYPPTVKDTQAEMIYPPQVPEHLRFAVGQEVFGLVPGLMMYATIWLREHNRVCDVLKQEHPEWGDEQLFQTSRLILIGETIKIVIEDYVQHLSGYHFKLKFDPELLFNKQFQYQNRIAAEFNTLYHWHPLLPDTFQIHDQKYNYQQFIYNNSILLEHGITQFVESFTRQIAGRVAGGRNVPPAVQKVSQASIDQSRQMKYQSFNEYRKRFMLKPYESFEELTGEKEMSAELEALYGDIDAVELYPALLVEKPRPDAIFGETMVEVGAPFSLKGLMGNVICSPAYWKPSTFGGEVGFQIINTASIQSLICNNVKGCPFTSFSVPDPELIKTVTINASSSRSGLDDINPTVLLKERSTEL

melting point | IC50 (COX-2) | SMILES
201.2 to 202.5 °C | 79 µM | CN(C)S(=O)(=O)c1ccc2c(c1)C=C(C(=O)O)C(C(F)(F)F)O2 (stereo not drawn) [Example 50, 6-[(Dimethylamino)sulfonyl]-2-trifluoromethyl-2H-1-benzopyran-3-carboxylic acid]
245.2 to 247.3 °C | > 100 µM | Cc1ccc2c(c1C)OC(C(F)(F)F)C(C(=O)O)=C2 (stereo not drawn) [Example 22, 7,8-Dimethyl-2-trifluoromethyl-2H-1-benzopyran-3-carboxylic acid]
207.5 to 209.3 °C | < 0.1 µM | Cc1cc2c(cc1Cl)C=C(C(=O)O)C(C(F)(F)F)O2 (stereo not drawn) [Example 6, 6-Chloro-7-methyl-2-trifluoromethyl-2H-1-benzopyran-3-carboxylic acid]
207.6 to 208.6 °C | 20 µM | CNS(=O)(=O)c1ccc2c(c1)C=C(C(=O)O)C(C(F)(F)F)O2 (stereo not drawn) [Example 52, 6-(Methylamino)sulfonyl-2-trifluoromethyl-2H-1-benzopyran-3-carboxylic acid]
244.7 to 249.8 °C | 1.4 µM | O=C(O)C1=Cc2c(ccc3ccccc23)OC1C(F)(F)F (stereo not drawn) [Example 63]
158.3 to 159.7 °C | > 100 µM | CC(C)c1ccc2c(c1)OC(C(F)(F)F)C(C(=O)O)=C2 (stereo not drawn) [Example 25, 7-(1-Methylethyl)-2-trifluoromethyl-2H-1-benzopyran-3-carboxylic acid]
 | 36 µM | CC(C)c1cc(Cl)cc2c1OC(C(F)(F)F)C(C(=O)O)=C2 (stereo not drawn) [Example 103, 6-Chloro-8-(1-methylethyl)-2-trifluoramethyl-2H-1-benzopyran-3-carboxylic acid]
196 to 197 °C |  | COc1ccc(CN2c3ccc(Cl)cc3C=C(C(=O)O)C2C(F)(F)F)cc1 (stereo not drawn) [Example 168, 6-Chloro-1,2-dihydro-2-(trifluoromethyl)-1-[[4-(methoxy)phenyl]methyl]-3-quinolinecarboxylic acid]
180.9 to 182.4 °C |  | O=C(O)C1=Cc2cc(Cl)c(C(F)(F)F)cc2OC1C(F)(F)F (stereo not drawn) [Example 94, 6-Chloro-2,7-bis(trifluoromethyl)-2H-1-benzopyran-3-carboxylic acid]
217.7 to 218.7 °C |  | COc1ccc(C#Cc2cc(Cl)cc3c2OC(C(F)(F)F)C(C(=O)O)=C3)cc1 (stereo not drawn) [Example 123, 6-Chloro-8-[(4-methoxyphenyl)ethynyl]-2-(trifluoromethyl)-2H-1-benzopyran-3-carboxylic acid]
> 300 °C |  | O=C(O)C1=Cc2cc(Cl)c(Oc3ccc(C(=O)O)cc3)cc2OC1C(F)(F)F (stereo not drawn) (as salt: potassium) [Example 206, 7-(4-Carboxyphenoxy)-6-chloro-2-(trifluoromethyl)-2H-1-benzopyran-3-carboxylic acid]
197 to 198 °C |  | O=C(O)C1=Cc2cc(-c3ccccc3)ccc2OC1C(F)(F)F (stereo not drawn) [Example 132, 6-Phenyl-2-(trifluoromethyl)-2H-1-benzopyran-3-carboxylic acid]
238 to 240 °C |  | CCN(CC)S(=O)(=O)c1ccc2c(c1)C=C(C(=O)O)C(C(F)(F)F)O2 (stereo not drawn) [Example 58, 6-N,N-Diethylaminosulfonyl-2-trifluoromethyl-2H-1-benzopyran-3-carboxylic acid]
143 to 145 °C |  | C=CC1=C(C(=O)O)C(C(F)(F)F)Oc2ccc(Cl)cc21 (stereo not drawn) [Example 142, 6-Chloro-2-(trifluoromethyl)-4-ethenyl-2H-1-benzopyran-3-carboxylic acid]
201 to 202 °C |  | CCN1c2ccc(Cl)cc2C=C(C(=O)O)C1C(F)(F)F (stereo not drawn) [Example 171, 6-Chloro-1,2-dihydro-1-ethyl-2-(trifluoromethyl)-3-quinolinecarboxylic acid]
243 to 244 °C |  | O=C(O)C1=Cc2cc(I)cc(I)c2OC1C(F)(F)F (stereo not drawn) [Example 134, 6,8-Diiodo-2-(trifluoromethyl)-2H-1-benzopyran-3-carboxylic acid]
205 to 206 °C |  | O=C(O)C1=Cc2cc(-c3ccc(Cl)s3)ccc2OC1C(F)(F)F (stereo not drawn) [Example 135, 6-(5-Chloro-2-thienyl)-2-(trifluoramethyl)-2H-1-benzopyran-3-carboxylic acid]
127.7 to 128.9 °C |  | O=C(O)C1=Cc2cc(OC(F)(F)F)ccc2NC1C(F)(F)F (stereo not drawn) [Example 162, 1,2-Dihydro-6-(trifluoromethoxy)-2-(trifluoromethyl)-3-quinolinecarboxylic acid]
238 to 240 °C |  | N#Cc1ccc2c(c1)C=C(C(=O)O)C(C(F)(F)F)N2 (stereo not drawn) [Example 164, 6-Cyano-1,2-dihydro-2-(trifluoromethyl)-3-quinolinecarboxylic acid]
175.2 to 177.6 °C |  | O=C(O)C1=Cc2ccc(Cl)cc2OC1C(F)(F)F (stereo not drawn) [Example 72, 7-Chloro-2-trifluoromethyl-2H-1-benzopyran-3-carboxylic acid]

melting point | IC50 (COX-2) | SMILES
225 to 228 °C |  | O=C(O)C1=Cc2cc(Cl)ccc2N(Cc2ccc([N+](=O)[O-])cc2)C1C(F)(F)F (stereo not drawn) [Example 170, 6-Chloro-1,2-dihydro-1-[(4-nitrophenyl)methyl]-2-(trifluoromethyl)-3-quinolinecarboxylic acid]
207 to 211 °C |  | O=C(O)C1=Cc2cc(F)cc(F)c2OC1C(F)(F)F (stereo not drawn) [Example 41, 6,8-Difluoro-2-trifluoromethyl-2H-1-benzopyran-3-carboxylic acid]
240.1 to 241.3 °C |  | O=C(O)C1=Cc2cc(C#Cc3ccccc3)ccc2OC1C(F)(F)F (stereo not drawn) [Example 124, 6-(Phenylethynyl)-2-(trifluoromethyl)-2H-1-benzopyran-3-carboxylic acid]
198.4 to 199.5 °C |  | O=C(O)C1=Cc2ccc(Br)cc2OC1C(F)(F)F (stereo not drawn) [Example 5, 7-Bromo-2-trifluoromethyl-2H-1-benzopyran-3-carboxylic acid]
152.2 to 153.3 °C |  | O=C(O)C1=Cc2ccccc2OC1C(F)(F)F (stereo not drawn) [Example 10, 2-Trifluoromethyl-2H-1-benzopyran-3-carboxylic acid]
225.7 to 227.3 °C |  | O=C(O)C1=Cc2ccc(Cl)cc2SC1C(F)(F)F (stereo not drawn) [Example 153, 7-Chloro-2-(trifluoromethyl)-2H-1-benzothiopyran-3-carboxylic acid]
148.3 to 151 °C |  | C[S+]([O-])c1ccc2c(c1)C=C(C(=O)O)C(C(F)(F)F)O2 (stereo not drawn) [Example 86, 6-(Methylsulfinyl)-2-(trifluoromethyl)-2H-1-benzopyran-3-carboxylic acid]
> 300 °C |  | O=C(O)C1=Cc2cc(Cl)c(Oc3ccc(C(=O)O)cc3Cl)cc2OC1C(F)(F)F (stereo not drawn) (as salt: potassium) [Example 207, 7-(4-Carboxy-2-chloro-phenoxy)-6-chloro-2-(trifluoromethyl)-2H-1-benzopyran-3-carboxylic acid]
177.5 to 180.8 °C |  | O=C(O)C1=Cc2cc(CO)ccc2OC1C(F)(F)F (stereo not drawn) [Example 80, 6-Hydroxymethyl-2-(trifluoromethyl)-2H-1-benzopyran-3-carboxylic acid]
174.6 to 178.9 °C |  | O=C(O)C1=Cc2cc(Cl)cc(CO)c2OC1C(F)(F)F (stereo not drawn) [Example 109, 6-Chloro-8-(hydroxymethyl)-2-(trifluoramethyl)-2H-1-benzopyran-3-carboxylic acid]
159.4 to 160.9 °C |  | CCOc1cccc2c1OC(C(F)(F)F)C(C(=O)O)=C2 (stereo not drawn) [Example 93, 8-Ethoxy-2-trifluoromethyl-2H-1-benzopyran-3-carboxylic acid]
76.1 to 80.1 °C |  | Cc1ncc(CO)c2c1OC(C(F)(F)F)C(C(=O)O)=C2 (stereo not drawn) [Example 90, 5-(Hydroxymethyl)-8-methyl-2-(trifluoromethyl)-2H-pyrano[2,3-c]pyridine-3-carboxylic acid]
220 to 225 °C (dec.) |  | Cc1cc(C)c2c(c1)C=C(C(=O)O)C(C(F)(F)F)S2 (stereo not drawn) [Example 146, 6,8-Dimethyl-2-(trifluoromethyl)-2H-1-benzothiopyran-3-carboxylic acid]
235 to 237 °C |  | Cc1cc2c(cc1C)SC(C(F)(F)F)C(C(=O)O)=C2 (stereo not drawn) [Example 149, 6,7-Dimethyl-2-(trifluoromethyl)-2H-1-benzothiopyran-3-carboxylic acid]
183.8 to 184.6 °C |  | CC(C)(C)c1ccc2c(c1)C=C(C(=O)O)C(C(F)(F)F)S2 (stereo not drawn) [Example 147, 6-(1,1-Dimethylethyl)-2-(trifluoromethyl)-2H-1-benzothiopyran-3-carboxylic acid]
171 to 173.5 °C |  | CC(C)(C)c1ccc2c(c1)OC(C(F)(F)C(F)(F)F)C(C(=O)O)=C2 (stereo not drawn) [Example 111, 7-(1,1-Dimethylethyl)-2-(pentafluoroethyl)-2H-1-benzopyran-3-carboxylic acid]
204.5 to 206.7 °C |  | COc1cccc2c1C=C(C(=O)O)C(C(F)(F)F)O2 (stereo not drawn) [Example 95, 5-Methoxy-2-(trifluoromethyl)-2H-1-benzopyran-3-carboxylic acid]
220 to 223 °C |  | O=C(O)C1=Cc2cc(Cl)cc(I)c2OC1C(F)(F)F (stereo not drawn) [Example 73, 6-Chloro-8-iodo-2-(trifluoramethyl)-2H-1-benzopyran-3-carboxylic acid]
206 to 208 °C |  | O=C(O)C1=Cc2cc(Br)cc(F)c2OC1C(F)(F)F (stereo not drawn) [Example 130, 6-Bromo-8-fluoro-2-(trifluoromethyl)-2H-1-benzopyran-3-carboxylic acid]
